The values below come from article PMC9741652, “CRL2^ZER1/ZYG11B recognizes small N-terminal residues for degradation” (Nature Communications, 2022).

pKd: −log10 of the molar value. No end group written: not given here.

As usually defined, the pKd is the Kd on a negative log10 scale, so that one unit is a factor of ten.

The target in one assay is T1, ZER1 (residues 469–766) (Homo sapiens, UniProt Q7Z7L7).
T1 construct: made in house; host or cells: E. coli BL21 (DE3)
As to the kind of experiment: ITC of peptides titrated into ZER1. The assay is classed as binding. Particulars: wild-type ZER1 residues 469–766. The text has this:
(§1) To further investigate the binding specificity of ZER1 and ZYG11B, we synthesized a set of eight-residue peptides (sequence: XFLHVGQD, X = any free Nt-residue), and carried out isothermal titration calorimetry (ITC) assays to quantify their binding affinities for ZER1 and ZYG11B. […] The rest of Nt-residues were disallowed for the binding to both ZER1 and ZYG11B (Fig. 1e, and Supplementary Fig. 1c–f).
(§2) ZYG11B (residues 490–728) bearing an N-terminal SELF generated by a modified pET28-MKH8SUMO (Addgene Plasmid #79526) vector and ZER1 (residues 469–766) bearing an N-terminal MEEL sequence generated by pNIC-CH (Addgene Plasmid #26117) vector were used to perform isothermal titration calorimetry (ITC) assays, as previously described. Proteins (concentration 50–70 μM) and peptides (concentration 0.5–1.5 mM) solutions were prepared in an ITC buffer consisting of 20 mM Tris-HCl (pH 7.5) and 150 mM NaCl. The ITC measurements were recorded at 16 °C with a MicroCal PEAQ-ITC instrument (Malvern Panalytical). 1.5 μL of each peptide (except for first injection using 0.5 μL peptide) was titrated into a 300 μL cell of the protein with 120 s incubation time between the injections. The reference power was controlled at […]. The acquired data were analyzed using MicroCal PEAQ-ITC Analysis Software version 1.30. Each experiment was repeated at least twice independently with similar results.

For assay [1], the target named is T2, ZER1 N597A (residues 469–766) (Homo sapiens, UniProt Q7Z7L7, N597A).
T2 construct: wild-type (WT) and mutant ZER1 (residues 469–766) titrated with SFLHVGQD peptide; made in house; host or cells: E. coli BL21 (DE3)
T2 sequence (Q7Z7L7 469-766 N597A): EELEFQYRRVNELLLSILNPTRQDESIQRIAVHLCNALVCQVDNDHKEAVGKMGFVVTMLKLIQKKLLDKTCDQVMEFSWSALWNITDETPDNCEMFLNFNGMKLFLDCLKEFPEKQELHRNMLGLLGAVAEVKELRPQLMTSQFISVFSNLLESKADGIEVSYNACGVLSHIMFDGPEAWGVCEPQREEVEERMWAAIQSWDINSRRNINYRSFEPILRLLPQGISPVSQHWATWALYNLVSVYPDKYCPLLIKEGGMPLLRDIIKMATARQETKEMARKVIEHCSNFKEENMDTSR
The experiment in a line: ITC of peptides with mutant ZER1 N597A. The conditions noted are these: mutant ZER1 residues 469–766, NB = no detectable binding.
Text: (§3) To verify the functional importance of the residues involved in substrate binding, we generated single-point mutants of the binding pocket residues in ZER1 and ZYG11B. […] In addition, mutating the third-residue-interacting N553 into alanine caused a significant reduction in substrate binding (Fig. 3e, and Supplementary Fig. 4a–c).
as §2

Assay [2] concerns the target T3, ZER1 D556A (residues 469–766) (Homo sapiens, UniProt Q7Z7L7, D556A).
T3 construct: wild-type (WT) and mutant ZER1 (residues 469–766) titrated with SFLHVGQD peptide; made in house; host or cells: E. coli BL21 (DE3)
The experiment in a line: ITC of peptides with mutant ZER1 D556A. Type of assay: binding. The conditions noted are these: mutant ZER1 residues 469–766.
Text: as §3, §2

Assay [3] concerns the target T4, ZER1 W552A (residues 469–766) (Homo sapiens, UniProt Q7Z7L7, W552A).
T4 construct: wild-type (WT) and mutant ZER1 (residues 469–766) titrated with SFLHVGQD peptide; made in house; host or cells: E. coli BL21 (DE3)
As to the kind of experiment: ITC of peptides with mutant ZER1 W552A. The conditions noted are these: mutant ZER1 residues 469–766, NB = no detectable binding.
Text: as §3, §2

The target of assay [4] is T5, ZER1 E600A (residues 469–766) (Homo sapiens, UniProt Q7Z7L7, E600A).
T5 construct: wild-type (WT) and mutant ZER1 (residues 469–766) titrated with SFLHVGQD peptide; made in house; host or cells: E. coli BL21 (DE3)
T5 sequence (Q7Z7L7 469-766 E600A): as the sequence (Q7Z7L7 469-766 N597A) above, with A129N, E132A counted along it
The experiment in a line: ITC of peptides with mutant ZER1 E600A. Particulars: mutant ZER1 residues 469–766. The assay is classed as binding.
Text: as §3, §2

Assay [5] has as its target T6, ZYG11B (residues 490–728) (Homo sapiens, UniProt Q9C0D3).
T6 construct: ZYG11B (residues 490–728) bearing an N-terminal SELF; 8xHis-SUMO (N, cleaved yes); made in house; host or cells: E. coli BL21 (DE3)
The experiment in a line: ITC of peptides titrated into ZYG11B. The conditions noted are these: ZYG11B residues 490–728, 20 mM Tris-HCl pH 7.5, 150 mM NaCl, 16 °C, repeated at least twice, NB = no detectable binding.
Text: as §1, §2

T4 sequence (Q7Z7L7 469-766 W552A): as the sequence (Q7Z7L7 469-766 N597A) above, with W84A, A129N counted along it
T1 sequence (Q7Z7L7 469-766): as the sequence (Q7Z7L7 469-766 N597A) above, with A129N counted along it
T6 sequence (Q9C0D3 490-728): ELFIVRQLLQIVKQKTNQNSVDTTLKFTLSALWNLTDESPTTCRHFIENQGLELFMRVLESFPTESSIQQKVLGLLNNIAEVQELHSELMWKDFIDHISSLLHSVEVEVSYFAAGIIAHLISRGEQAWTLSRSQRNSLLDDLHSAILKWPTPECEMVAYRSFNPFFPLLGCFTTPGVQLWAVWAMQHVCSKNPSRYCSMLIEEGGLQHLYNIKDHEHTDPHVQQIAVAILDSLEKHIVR
T3 sequence (Q7Z7L7 469-766 D556A): as the sequence (Q7Z7L7 469-766 N597A) above, with D88A, A129N counted along it

Consider SGRGKQGGKA [H2A peptide], for which the “binding to ZER1, in words” value at ZER1 (residues 469–766) is given as “readily bind”.

In the case of SFLHVGQD [SFLHVGQD], the negative-log Kd (pKd) in assay [1], in assay [2], in assay [3] and in assay [4] was below 4.00 throughout.

In assay [5], H-VFLHVGQD [VFLHVGQD] had a negative-log Kd (pKd) below 4.00.
